Marks after values point to notes of the source that are not given here.
Tests used:
VPAC-1 receptor = VPAC-1 receptor expression (qPCR) in anterior kidney leukocytes treated with poly I:C; type: cell-based, rainbow trout (Oncorhynchus mykiss); details: cultured leukocytes, poly I:C, 4, 24 and 48 hours
PAC-1 receptor = PAC-1 receptor expression (qPCR) in head kidney leukocytes treated with poly I:C; type: cell-based, rainbow trout (O. mykiss); details: poly I:C 30 μg/mL, 4, 24 and 48 hours
Method: Juvenile rainbow trout (O. mykiss) was used from 9 to 12 grams and 7 months of age, VHSV and IPNV free. Fish were maintained at 14° C. with water circulation. Food was administered twice a day ad libitum. The virus, VHSV (strain 0771) and IPNV (strain Sp) were propagated in the rainbow trout gonad cell line RTG-2 (Sena and Rio (1975) Infect Immun 11:815-22). Cells were grown in minimal essential medium (MEM, Invitrogen, USA) supplemented with 10% of fetal calf serum (FCS, Invitrogen) containing 100 IU/mL of penicillin and 100 μg/mL of streptomycin. The viruses were inoculated into RTG-2 cells grown in MEM with antibiotics and 2% FCS at 14° C. […] The viral titers were determined in 96-well plates as reported by Reed and Muench (Reed and Muench ([…]) J Hyg 27:280-9). […]
Finally, total RNA was purified from leukocytes cultures using the method described by Chomczynski and Sacchi (Chomczynski and Sacchi (1987) Anal. Biochem. 162:156-9) to evaluate the expression levels of the PAC-1 receptor on leukocytes untreated and treated with Poly I:C or infected with viruses. […] For quantitative PCR reactions (qPCR) was used a mixture of PCR from commercial sources: Power SYBR Green PCR Master Mix (Applied Biosystems). […] The results were expressed as 2^−ΔCt, where ΔCt is equal to the remainder of the gene Ct value minus the assessed value of Ct normalizer gene (EF 1α).

IFN γ coding gene = assay: PACAP38 effect on transcription of IFN γ coding gene in leukocytes (qPCR); type: cell-based, rainbow trout (Oncorhynchus mykiss); details: 48 hours
Text: (§1) Juvenile rainbow trout (O. mykiss) was used of approximately 50 grams, VHSV and IPNV free. Fish (n=5) were anesthetized with methanesulfonic acid salt (Sigma, USA) and were removed aseptically, first peripheral blood from the tail vein and then the anterior kidney were isolated from peripheral blood leukocytes from anterior kidney and trout from 5 independently, following the method described by Graham and Secombe (Graham and Secombe ([…]) Immunology 65:293-7).
(§2) The peripheral blood of each fish was diluted 4 times in half Leibovitz (L-15, Gibco, UK) supplemented with penicillin 100 IU/mL, streptomycin (100 μg/mL), heparin (10 units/mL) and 2% FCS and placed carefully on a Percoll gradient to 51%. The ring of cells corresponding to leukocytes was removed carefully, washed twice in L-15 containing 0.1% FCS.
(§3) The anterior kidney was passed through a nylon mesh of 100 μm Leibovitz (L-15, Gibco, UK) supplemented with penicillin 100 IU/mL, streptomycin (100 μg/mL), heparin (10 units/mL) and 2% FCS. The resulting cell suspension was diluted 1:4 in the same medium supplemented L-15 and placed carefully on a Percoll gradient to 51%. The ring of cells corresponding to leukocytes was removed carefully, washed twice in L-15 containing 0.1% FCS.
(§4) The cells were suspended in L-15 with 5% FCS at a concentration of 5×10^6 cells per ml and dispensed in 24-well plates at 1 mL per well. The leukocytes were treated with 3 doses of PACAP38 from Clarias gariepinus obtained by chemical synthesis (10^−10 M, 10^−9 M and 10^−8 M) in duplicate and used as negative control untreated leukocytes dispensed in duplicate.
(§5) The levels of Mx, IFN and TLR9 were evaluated 48 hours after treatment. In order to do so, total RNA was purified from leukocyte cultures treated with PACAP by the method described by Chomczynski and Sacchi (Chomczynski and Sacchi (1987) Anal. Biochem. 162:156-9).
(§6) For the synthesis of cDNA it was used a commercial reagent kit uses SuperScript III reverse transcriptase (Invitrogen). Finally, for quantitative PCR reactions (qPCR) was used a mixture of PCR from commercial sources: Power SYBR Green PCR Master Mix (Applied Biosystems). The qPCR results were normalized against a constitutive endogenous constitutive expression gene specifically elongation 1α (EF 1α) and were performed in triplicate. The results were expressed as 2^−ΔCt, where ΔCt is equal to the remainder of the gene Ct value minus the assessed value of Ct normalizer gene EF 1α).

Mx protein coding gene = assay: PACAP38 effect on transcription of Mx protein coding gene in leukocytes (qPCR); type: cell-based, rainbow trout (Oncorhynchus mykiss); details: 48 hours
Text: as §1, §2, §3, §4, §5, §6

TLR9 coding gene = assay: PACAP38 effect on transcription of TLR9 coding gene in leukocytes (qPCR); type: cell-based, rainbow trout (Oncorhynchus mykiss); details: 48 hours
Text: as §1, §2, §3, §4
The levels of Mx, IFN and TLR9 were evaluated 48 hours after treatment. […]
as §6, with “The qPCR results were normalized against a constitutive endogenous constitutive expression gene specifically elongation 1α (EF 1α) and were performed in triplicate.” left out

IPNV [1] = details: daily baths 0.4 and 0.8 μg/mL for two hours during 20 days; cited from earlier work
IHNV = assay: Rainbow trout experimentally infected with IHNV; type: in vivo, rainbow trout (O. mykiss); details: amantadine 400/800 μg/L, PACAP 100/200 μg/L or combinations, doses not told apart; untreated infected 26%
Method: The fish were challenged by immersion with 5.9×10^3 pfu/ml virus in 20 L of water with aeration for 1 hour.

[2] = test system: IPNV (strain ATCC VR-299); assay: Atlantic salmon experimentally infected with IPNV, treatment by immersion; type: in vivo, Atlantic salmon (Salmo salar); details: for Increment / Final Weight: 45 days post-infection; for Final Weight: initial 1.2 ± 0.3 g; for survival: 45 days, untreated infected 30%
Method: An experiment was conducted to evaluate the effect of the administration of PACAP and PACAP-ribavirin combination for salmon (Salmo salar) experimentally infected with IPNV. Eight experimental groups were performed of 50 fish and a size of 1.2±0.3 g each one and were kept in water at 10-12° C.: • Group 1: untreated fish not exposed to the virus • Group 2: untreated fish, exposed to the virus • Group 3: Group treated with ribavirin at a dose of 400 μg/L of water, exposed to the virus • Group 4: Group treated with ribavirin at a dose of 800 μg/L of water, exposed to the virus • Group 5: Group treated with PACAP at a dose of 100 μg/L of water, exposed to the virus • Group 6: Group treated with PACAP at a dose of 200 μg/L, exposed to the virus • Group 7: Group treated with ribavirin 400 μg/L-PACAP 100 μg/L combination, exposed to the virus • Group 8: Group treated with ribavirin 800 μg/L-PACAP 200 μg/L combination, exposed to the virus.
The animals were fed twice a day with an amount equivalent to 3% of the total corporal weight in each tank. […] Treatments were performed 3 times a week for 20 days. Experimental observations were made during this period and 25 days after the last treatments. During the 45 days of the experiment deaths and abnormal behavior of the fish were monitored. Fish in Groups 1 and 2 were subjected to the same stress produced by the treatment without the antiviral compound or the combination of PACAP-antiviral. The fish in Group 1 received the same procedure with cell culture medium instead of the virus.

[3] = test system: IPNV (strain ATCC VR-299); assay: Rainbow trout experimentally infected with IPNV, treatment by immersion; type: in vivo, rainbow trout (O. mykiss); details: for Increment with respect to initial weight / Final Weight: 45 days post-infection; for Final Weight: initial 1.6 ± 0.4 g; for survival: 45 days, untreated infected 20%
Method: An experiment was conducted to evaluate the effect of administration of PACAP and PACAP-ribavirin combination in rainbow trout experimentally infected with IPNV. Eight experimental groups of 50 fish each at a body weight of 1.6±0.4 g were used. The water temperature was kept at 10-12° C. • Group 1: untreated fish not exposed to the virus • Group 2: untreated fish, exposed to the virus • Group 3: Group treated with ribavirin at a dose of 400 μg/L of water, exposed to the virus • Group 4: Group treated with ribavirin at a dose of 800 μg/L of water, exposed to the virus • Group 5: Group treated with PACAP at a dose of 100 μg/L of water, exposed to the virus • Group 6: Group treated with PACAP at a dose of 200 μg/L of water, exposed to the virus. • Group 7: Group treated with the combination 1 (ribavirina 400 μg/L-PACAP 100 μg/L, exposed to the virus.
Group 8: Group treated with the combination 2 (ribavirina 800 μg/L-PACAP 200 μg/L exposed to the virus.
The animals were fed twice a day with an amount equivalent to 3% of the total corporal weight in each tank. […] Fish in Groups 1 and 2 were subjected to the same stress treatment without the antiviral compound or without the PACAP-antiviral combination. The fish in Group 1 received the same procedure with cell culture medium instead of virus. […] Treatments with PACAP or with PACAP-antiviral combination were performed 3 times a week for 20 days. The first treatments were performed 2 h after viral infection. Experimental observations were made during the first 20 days of treatments and 25 days after it concluded. During the experiment (45 days) deaths and abnormal behavior of the fish were monitored.

IPNV [4] = assay: Oysters experimentally infected with IPNV, viral titer in hepatopancreas; type: in vivo, oysters of the species Pecten maximus; details: two weeks after challenge, untreated infected 8.1
Method: Eight experimental groups were performed of 30 adult oysters each one and were kept in 250 L of filtered sea water at 10° C.
Treatments were performed 3 times a week for 20 days. Oysters were challenged by exposure to 25 L of water containing 10^7 TCID50 mL^−1 in tanks of 80 L. After 6 h the water was replaced at a slow flow of 1 L/min and at 12 h the flow was increased to 3 L/min.
Two weeks after challenge hepatopancreas samples were taken and determined the viral titer.

[5] = head kidney leukocytes, 10^−9 M
[6] = Groups 3, 5, 7: ribavirin 400 μg/L, PACAP 100 μg/L or both
[7] = Groups 4, 6, 8: ribavirin 800 μg/L, PACAP 200 μg/L or both
[8] = Groups 3, 5, 7: ribavirin 400 μg/L, PACAP 100 μg/L or combination 1
[9] = Groups 4, 6, 8: ribavirin 800 μg/L, PACAP 200 μg/L or combination 2

## poly I:C
VPAC-1 receptor
  levels of VPAC-1 expression relative to EF1α: over-expressed
PAC-1 receptor
  levels of PAC-1 expression relative to EF1α: over-expressed

## PACAP38
IFN γ coding gene; anterior kidney leukocytes, 10^−9 and 10^−8 M
  IFN γ expression levels versus control group: statistically higher than the control group
IFN γ coding gene; anterior kidney leukocytes
  dose giving the best IFN γ expression results: 10^−9 M
IFN γ coding gene; peripheral blood leukocytes, 3 doses (10^−10, 10^−9, 10^−8 M), undetectable in non-treated cultures
  IFN γ expression levels: detectable levels of expression
IFN γ coding gene; peripheral blood leukocytes
  dose giving the highest IFN γ expression level: 10^−9 M
Mx protein coding gene; [5]
  Mx protein expression levels relative to negative control: stimulatory effect
Mx protein coding gene; peripheral blood leukocytes, 10^−8 M
  Mx protein expression levels relative to negative control: did not differ
Mx protein coding gene; peripheral blood leukocytes, 10^−9 M, below levels at 10^−10 M
  Mx protein expression levels relative to negative control: stimulatory effect
Mx protein coding gene; peripheral blood leukocytes, 10^−10 M
  Mx protein expression levels relative to negative control: increase
TLR9 coding gene; [5]
  TLR9 expression levels versus negative control: statistically higher than the negative control
TLR9 coding gene; peripheral blood leukocytes, 10^−10-10^−8 M, undetectable in unstimulated cultures
  TLR9 expression levels: detectable levels
TLR9 coding gene; peripheral blood leukocytes
  dose giving the highest TLR9 expression values: 10^−10 M

## C#Cc1c(C(N)=O)ncn1[C@@H]1O[C@H](CO)[C@@H](O)[C@H]1O [EICAR, 5-ethynyl-1-β-D-ribofuranosylimidazole-carboxamide]
IPNV [1]
  viral load in liver and spleen (RT-PCR): decrease in viral load

## NC12CC3CC(CC(C3)C1)C2 [amantadine]
IHNV
  survival: 46%

## NC(=O)c1ncn([C@@H]2O[C@H](CO)[C@@H](O)[C@H]2O)n1 [ribavirin]
[2]; Atlantic salmon, IPNV, both doses, untreated infected: day 6
  day on which early signs of disease were detected: 10 days
[2]; [6]
  Increment: 83%
  Final Weight: 2.2 ± 0.4^c g
[2]; [7]
  Increment: 92%
  Final Weight: 2.3 ± 0.5^c g
[2]; high dose: ribavirin 800 μg/L or PACAP 200 μg/L
  survival: 76%
[2]; low dose: ribavirin 400 μg/L or PACAP 100 μg/L
  survival: 70%
[3]; [8]
  Increment with respect to initial weight: 137%
  Final Weight: 3.8 ± 1.1^c g
  survival: 68%
[3]; [9]
  Increment with respect to initial weight: 131%
  Final Weight: 3.7 ± 1.0^c g
  survival: 70%
[3]; rainbow trout, IPNV, both doses, untreated infected: day 15
  day on which appetite was recovered: 13 days
[3]; rainbow trout, IPNV, treatments 3 times a week for 20 days, both doses, untreated infected: day 6
  day on which signs of disease were detected: 8 days
IPNV [4]; [8]
  IPNV average viral titer in the hepatopancreas: 5.4^b log10TCID50 g^−1
IPNV [4]; [9]
  IPNV average viral titer in the hepatopancreas: 4.3^b log10TCID50 g^−1

From US9603900B2, “Use of PACAP for the treatment of viral infections in aquatic organisms” (Centro de Ingenieria Genetica y Biotecnologia, priority 2010, dated 2017)
